Test results: US9902940B2, “Human blood-brain barrier endothelial cells derived from pluripotent stem cells and blood-brain barrier model thereof” (Wisconsin Alumni Research Foundation, priority 2010, dated 2018)
Where two headings read alike, the source gives them in different places.

How the values were obtained:
[1] = cited from earlier work
IMR90-4-derived BMECs = experiment: Permeability coefficients (Pe) of radiolabeled small molecules across the IMR90-4-derived BMEC/astrocyte co-culture model
Procedure: For co-culture experiments, primary astrocytes were isolated as previously described^37. Briefly, cortices were isolated from P6 neonatal Sprague Dawley rats (Harlan) and minced in Hank's Balanced Salt Solution (HBSS; Sigma). […] After trituration and filtration, cells were cultured on collagen-I-coated flasks (100 μg/mL; Sigma) in DMEM containing 10% qualified heat-inactivated fetal bovine serum (FBS; Invitrogen), 10% heat-inactivated horse serum (Sigma), 2 mM L-glutamine, and 1% antibiotic-antimycotic (Invitrogen). Human embryonic kidney 293 cells (HEK cells; ATCC) were cultured in DMEM supplemented with 10% FBS, 1 mM sodium pyruvate (Sigma), 2 g/L sodium bicarbonate (Fisher Scientific), 30 mM HEPES (Sigma), and 1% antibiotic-antimycotic, and used as a non-neural cell control. Co-culture of hPSC-derived BMECs was initiated with primary rat astrocytes or HEK cells in either EC medium (called 1% PDS medium in Table 2) or 70:30 (v/v) DMEM/F12 (Sigma/Invitrogen) supplemented with 1% antibiotic-antimycotic, 2% B27 (Invitrogen), and 10% FBS^37 (called 10% FBS medium in Table 2). Trans-endothelial electrical resistance (TEER) measurements were performed using an EVOM voltohmmeter (World Precision Instruments) at the start of co-culture and every 24 h thereafter. The resistance value (Ω×cm^2) of an empty filter coated with collagen/fibronectin was subtracted from each measurement. Permeability coefficients (Pe) were evaluated after 24 h of co-culture as previously described^34. For sodium fluorescein Pe measurements, 10% FBS medium containing 1 μM sodium fluorescein solution was added to the apical chamber of the […]™ filter. 200 μL aliquots were extracted from the basolateral chamber (which contains 1.5 mL of medium) every 30 min and replaced by fresh medium. Using a fluorescent plate reader and calibration curve, the flux of fluorescein to the bottom chamber and permeability coefficients were calculated as described by Calabria et al^34. To determine the Pe of radiolabeled ligands, compounds were diluted to 0.4 μCi in transport buffer (distilled water with 0.12 M NaCl, 25 mM NaHCO3, 3 mM KCl, 2 mM MgSO4, 2 mM CaCl2, 0.4 mM K2HPO4, 1 mM HEPES, and 0.1% bovine serum albumin [BSA; Sigma]) and 0.5 mL were added to the upper chamber. 200 μL aliquots were extracted from the basolateral chamber every 15 min and replaced by fresh buffer. […] [^3H]-vincristine was purchased from American Radiolabeled Chemicals, while all other radiolabeled compounds were acquired from PerkinElmer. All compound incubations were conducted at 37° C., and the radioactive permeability experiments were carried out on a rotator. Triplicate filters were used for all permeability studies and the values listed throughout the Results section are representative of a minimum of two biological replicates.

[2] = test system: BBB influx and efflux transporters (GLUT-1, MDR1, BCRP, MRP family, organic cation transporters); conditions: cited from earlier work
[3] = test system: p-glycoprotein, BCRP and MRP family efflux transporters; experiment: Apical-to-basolateral transport of doxorubicin with efflux inhibitors, IMR90-4-derived BMEC/astrocyte model; type: in vitro ADME, human; conditions: astrocyte co-culture; 60 min; normalized to no inhibitor
[4] = test system: p-glycoprotein, BCRP, and the MRP family; experiment: Doxorubicin accumulation assay with efflux inhibitors in monocultured IMR90-4-derived BMECs; type: in vitro ADME, human; conditions: monoculture; doxorubicin 0.25 μCi, 1 h; 5 μM cyclosporin A, 1 μM Ko143 or 10 μM MK 571
p-glycoprotein = p-glycoprotein (Homo sapiens, UniProt P08183)
p-glycoprotein, sequence (P08183 whole entry): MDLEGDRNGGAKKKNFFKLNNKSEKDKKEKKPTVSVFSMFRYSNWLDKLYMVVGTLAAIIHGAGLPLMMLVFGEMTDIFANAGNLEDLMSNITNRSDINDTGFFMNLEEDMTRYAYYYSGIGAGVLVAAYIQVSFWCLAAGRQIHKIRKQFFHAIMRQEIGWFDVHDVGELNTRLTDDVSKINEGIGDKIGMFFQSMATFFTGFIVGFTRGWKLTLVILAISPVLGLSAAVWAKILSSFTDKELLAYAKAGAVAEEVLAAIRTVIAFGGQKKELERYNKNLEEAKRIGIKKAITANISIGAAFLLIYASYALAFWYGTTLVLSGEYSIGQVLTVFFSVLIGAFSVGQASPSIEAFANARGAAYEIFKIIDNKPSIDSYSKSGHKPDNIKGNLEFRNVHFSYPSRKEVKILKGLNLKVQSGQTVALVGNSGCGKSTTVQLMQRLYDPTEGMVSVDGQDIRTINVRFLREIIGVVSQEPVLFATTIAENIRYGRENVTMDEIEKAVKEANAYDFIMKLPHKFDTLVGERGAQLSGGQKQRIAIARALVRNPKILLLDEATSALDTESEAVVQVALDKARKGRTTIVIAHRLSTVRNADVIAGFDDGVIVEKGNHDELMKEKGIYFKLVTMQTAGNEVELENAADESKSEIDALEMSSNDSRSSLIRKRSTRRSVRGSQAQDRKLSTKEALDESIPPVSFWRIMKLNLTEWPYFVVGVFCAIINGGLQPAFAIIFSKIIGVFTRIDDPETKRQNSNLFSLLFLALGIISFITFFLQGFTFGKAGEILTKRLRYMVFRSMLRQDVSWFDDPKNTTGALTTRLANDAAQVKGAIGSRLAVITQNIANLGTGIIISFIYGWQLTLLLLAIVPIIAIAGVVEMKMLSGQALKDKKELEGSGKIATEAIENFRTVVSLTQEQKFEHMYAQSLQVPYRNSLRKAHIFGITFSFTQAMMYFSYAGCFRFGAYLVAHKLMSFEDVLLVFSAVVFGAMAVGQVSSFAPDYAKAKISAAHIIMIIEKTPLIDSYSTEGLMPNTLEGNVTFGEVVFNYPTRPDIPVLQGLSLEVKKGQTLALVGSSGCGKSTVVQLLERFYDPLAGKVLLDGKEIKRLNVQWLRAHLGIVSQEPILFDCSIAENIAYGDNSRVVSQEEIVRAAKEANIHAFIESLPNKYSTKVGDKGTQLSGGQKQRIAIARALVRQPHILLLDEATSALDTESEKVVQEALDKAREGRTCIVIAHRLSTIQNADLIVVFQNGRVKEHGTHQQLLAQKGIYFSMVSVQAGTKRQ

Wnt/β-catenin pathway = experiment: Quantitative RT-PCR of genes elevated during BMEC specification under Wnt inhibition; type: cell-based, human; conditions: IMR90-4, 7 days UM; SFRP2 250 then 750 ng/mL, or 10 μM XAV-939 from day 2, versus untreated or DMSO
Procedure: Cells were differentiated as previously described. […] For RNA collection, cells were washed once with PBS and dissociated with trypsin or accutase. Total RNA was extracted using an RNeasy Mini Kit (Qiagen) according to the manufacturer's instructions. cDNA was generated from 1 μg of RNA using Omniscript reverse transcriptase (Qiagen) and oligo-dT primers (Invitrogen). Quantitative PCR (qPCR) was then performed using 1 μL of cDNA and iQ SYBR Green Supermix (Bio-Rad) on an iCycler (Bio-Rad). RT-PCR was also performed using GoTaq Green Master Mix (Promega). Primer sequences are supplied in Table 8. Relative expression was quantified using the comparative cycle threshold (CT) method, normalizing to glyceraldehyde-3-phosphate dehydrogenase (GAPDH) expression. Fold difference was calculated as x^−ΔΔCT, where x refers to primer efficiency calculated according LinRegPCR version 12.3^59. Transcript amplification was analyzed by 2% agarose gel electrophoresis of the qPCR or RT-PCR products.

[5] = test system: differentiating IMR90-4 iPSC cultures (BMEC specification); experiment: Flow cytometry of PECAM-1/GLUT-1 expression in differentiating IMR90-4 cultures under Wnt inhibition; type: cell-based, human
Procedure: Cells were harvested via Accutase (Invitrogen) incubation for 2-3 min, fixed in 100% ice-cold methanol for 20 min, and blocked with 40% PBSG for 20 min at room temperature. Primary antibody labeling (Table 5) was performed in 10% PBSG for 1 h at room temperature. IgG controls were used at the same concentration. After a wash with 5% FBS in PBS, secondary antibodies (goat anti-rabbit Alexa 488 and goat anti-mouse Alexa 647; 1:200) in 10% PBSG were added to each sample for 30 min at room temperature. After two washes with 5% FBS in PBS, the samples were analyzed on a FACScaliber flow cytometer. PECAM-1^+ events were quantified using a PECAM-1/forward scatter dot plot referenced to a rabbit IgG control. GLUT-1^+ events were quantified using a GLUT-1/forward scatter dot plot referenced to a 4D UM culture that lacked BMECs. Events that were found in both of these positive gates were classified as PECAM-1^+/GLUT-1^+ cells. βIII tubulin and nestin expression were quantified against rabbit and mouse IgG controls, respectively. Data are presented as two-dimensional dot plots with color codes to indicate events within each gate.

[6] = test system: differentiating IMR90-4 cultures; experiment: Claudin-5 and occludin localization and western blots in differentiating cultures under XAV-939; type: cell-based, human; conditions: data not shown
Procedure: Cells were washed once with PBS and fixed in either 2% paraformaldehyde or 100% ice-cold methanol for 15 min. The cells were then blocked with 40% goat serum in PBS (40% PBSG). If probing for an intracellular antigen, 0.1% TX-100 was present in the 40% PBSG. The cells were then incubated in 40% PBSG containing primary antibody (see Table 5 for list) for one h at room temperature. After three washes in PBS, cells were incubated in 40% PBSG containing goat anti-rabbit Texas Red (1:500; Invitrogen) or goat anti-mouse Alexa 488 (1:500; Invitrogen). Cell nuclei were labeled with 300 nM 4′,6-Diamidino-2-pheny-lindoldihydrochloride (DAPI) for 10 min. Cells were washed three times in PBS and visualized. In situ hybridization for detection of WNT7A and WNT7B transcripts was conducted similar to the method described by Planell-Saguer et al^58. Briefly, cells were washed once with PBS and fixed in 2% paraformaldehyde for 10 min, followed by permeabilization in PBS containing 0.1% TX-100 for 5 min. Pre-hybridization was performed with a water-based solution containing 3% BSA and 4× saline-sodium citrate buffer (SSC; Fisher), followed by a 1 h hybridization in 4×SSC and 10% dextran sulfate (Fisher) at room temperature. Digoxigenin-labeled locked nucleic acid probes were purchased from Exiqon (sequences found in Table 6). […]

[7] = Sodium fluorescein permeability, DF19-9-11T-derived BMECs; type: in vitro ADME; conditions: human, 1 μM sodium fluorescein, read-out: fluorescein permeability coefficient (Pe), average (converted)
Procedure: (§1) Permeability coefficients were evaluated after 24 hours of co-culture as previously described. […] Using a fluorescent plate reader and calibration curve, the rate of fluorescene influx to the bottom chamber was calculated, and final values for permeability coefficients were then calculated according to Calabria et al.^34.

hCMEC/D3 line = hCMEC/D3 line (ref. 9); cited from earlier work
[8] = Sodium fluorescein permeability, IMR90-4-derived BMEC/astrocyte co-culture; type: in vitro ADME; conditions: human; IMR90-4-derived BMECs, astrocyte co-culture, 1 μM sodium fluorescein; read-out: fluorescein permeability coefficient (Pe) (converted)
Procedure: as §1

primary human BMECs = primary human BMECs (ref. 56); cited from earlier work
[9] = IMR90-4-derived BMEC/astrocyte co-culture model
[10] = IMR90-4-derived BMECs co-cultured with rat astrocytes, radiolabeled compound, apical to basolateral over 1 h, 37° C., mean ± SD of biological replicates
[11] = efflux transporter substrates (Table 6)

COc1cc2c(c(OC)c1OC)-c1ccc(OC)c(=O)cc1[C@@H](NC(C)=O)CC2 [Colchicine]
Octanol/water partition coefficient (logD) [1]: 1.03
Pe value (IMR90-4-derived BMECs; [9]): 1.53 ×10⁻⁶ cm/s
Average Pe (IMR90-4-derived BMECs; [10]): 0.09 ± 0.1 10^−3 cm/min

CN1C(=O)CN=C(c2ccccc2)c2cc(Cl)ccc21 [Diazepam]
Pe value (IMR90-4-derived BMECs; [9]): 18.5 ×10⁻⁶ cm/s
Average Pe (IMR90-4-derived BMECs; [10]): 1.11 ± 0.45 10^−3 cm/min

COc1cccc2c1C(=O)c1c(O)c3c(c(O)c1C2=O)C[C@@](O)(C(=O)CO)C[C@@H]3O[C@H]1C[C@H](N)[C@H](O)[C@H](C)O1 [Doxorubicin]
Transporter recognition [2, 11]: MDR1, BCRP, MRP1, MRP2

COc1ccc2c3c([nH]c2c1)[C@H](CC(C)C)N1C(=O)[C@H](CCC(=O)OC(C)(C)C)NC(=O)[C@@H]1C3 [Ko143]
Transporter recognition ([2]; efflux transporter inhibitors (Table 6)): BCRP
transport of doxorubicin from the apical to basolateral chamber in the presence of inhibitor [3]: 1.3 fold
accumulation of doxorubicin in the presence of inhibitor [4]: increased

CN(C)C(=O)CCSC(SCCC(=O)O)c1cccc(/C=C/c2ccc3ccc(Cl)cc3n2)c1 (stereo not drawn) [MK 571]
transport of rhodamine 123 from the apical to basolateral chamber in the presence of inhibitor (p-glycoprotein): not

COc1cc2nc(N3CCN(C(=O)c4ccco4)CC3)nc(N)c2cc1OC [Prazosin]
Octanol/water partition coefficient (logD) [1]: 2.16
Pe value (IMR90-4-derived BMECs; [9]): 4.77 ×10⁻⁶ cm/s
Average Pe (IMR90-4-derived BMECs; [10]): 0.29 ± 0.04 10^−3 cm/min

OC[C@H]1O[C@@](CO)(O[C@H]2O[C@H](CO)[C@@H](O)[C@H](O)[C@H]2O)[C@@H](O)[C@@H]1O [Sucrose]
Octanol/water partition coefficient (logD) [1]: −3.3

CC[C@]1(O)C[C@H]2CN(CCc3c([nH]c4ccccc34)[C@@](C(=O)OC)(c3cc4c(cc3OC)N(C=O)[C@H]3[C@@](O)(C(=O)OC)[C@H](OC(C)=O)[C@]5(CC)C=CCN6CC[C@]43[C@@H]65)C2)C1 [Vincristine]
Octanol/water partition coefficient (logD) [1]: 2.8
Average Pe (IMR90-4-derived BMECs; human, 1 h): 0.06 ± 0.02 10^−3 cm/min
Pe value (IMR90-4-derived BMECs; human, 1 h): 1.03 ×10⁻⁶ cm/s

Oc1nc(-c2ccc(C(F)(F)F)cc2)nc2c1CSCC2 [XAV-939]
expression of LEF1, FST, STRA6, FZD6, SLC2A1 and ABCB1 by quantitative RT-PCR (Wnt/β-catenin pathway): statistically significant downregulation
Mean per cell expression of GLUT-1 ([5]; IMR90-4, 6D UM 2D EC, 10 μM XAV-939, DMSO control 285): 272 A.U.
% GLUT-1^+/PECAM-1^+ ([5]; IMR90-4, 6D UM 2D EC, 10 μM XAV-939 from day 2 of UM, DMSO control 64%): 46%
% PECAM-1^+ overall ([5]; IMR90-4, 6D UM 2D EC, 10 μM XAV-939 from day 2 of UM, DMSO control 68%): 61%
net reduction in the overall number of PECAM-1^+/GLUT-1^+ BMECs ([5]; IMR90-4, XAV-939 versus DMSO control): 20%
claudin-5 or occludin localization ([6]; XAV-939 treatment): did not alter
amounts of claudin-5 and occludin by western blots ([6]; regardless of XAV-939 treatment): equal amounts

O=C1OC2(c3ccc(O)cc3Oc3cc(O)ccc32)c2ccccc21 [sodium fluorescein]
Papp A→B at 1 μM [7]: 0.085 ×10⁻⁶ cm/s
reported sodium fluorescein Pe (hCMEC/D3 line): 56.7 ×10⁻⁶ cm/s
Papp A→B at 1 μM [8]: 0.0367 ×10⁻⁶ cm/s
reported sodium fluorescein Pe (primary human BMECs): 53.3 ×10⁻⁶ cm/s

Inulin
Octanol/water partition coefficient (logD) [1]: −0.25
Average Pe (IMR90-4-derived BMECs; [10]): 0.029 ± 0.015 10^−3 cm/min
Transporter recognition ([2]; compounds of the permeability screen (Table 5)): None

Rhodamine 123
Transporter recognition [2, 11]: MDR1

B1: SFRP2: mouse secreted protein that binds to soluble Wnts and prevents upstream activation of the Wnt pathway (protein, UniProt P97299 25-295, looked up)
Secreted frizzled-related …: LFLFGQPDFSYKRSNCKPIPANLQLCHGIEYQNMRLPNLLGHETMKEVLEQAGAWIPLVMKQCHPDTKKFLCSLFAPVCLDDLDETIQPCHSLCVQVKDRCAPVMSAFGFPWPDMLECDRFPQDNDLCIPLASSDHLLPATEEAPKVCEACKTKNEDDNDIMETLCKNDFALKIKVKEITYINRDTKIILETKSKTIYKLNGVSERDLKKSVLWLKDSLQCTCEEMNDINAPYLVMGQKQGGELVITSVKRWQKGQREFKRISRSIRKLQC
expression of LEF1, FST, STRA6, FZD6, SLC2A1 and ABCB1 by quantitative RT-PCR (Wnt/β-catenin pathway): statistically significant downregulation
